Values of other authors, collected in patent US20100068280A1, “SUSTAINED RELEASE PHARMACEUTICAL DOSAGE FORM CONTAINING PHENYLEPHRINE” (priority 2006, published 2010).

Conditions: in vivo

CN1CCC(=C2c3ccccc3CCc3cccnc32)CC1 [Azatadine]
elimination half-life: 9 to 12 h
